From patent US9956181B2, “Composition of nanoformulated lycopene and method of using the composition” (priority 2015, dated 2018) come the findings set out here.

Structures are written as SMILES.

In the test the test system is genes involved in osteoblast activity, osteoclastogenesis, apoptosis and oxidative stress enzymes. Kind of test: OVX rat study: qRT-PCR of bone marrow and flushed femur. The following applies: for decrease in concentration ratio of RANKL/OPG: P<0.05. The test is classed as in vivo, Wistar rats. Here is the method:
FIG. 10 depicts […] analysis of genes involved in osteoblast activity, osteoclastogenesis, apoptosis and oxidative stress enzymes, in accordance with embodiments of the present invention. Bone marrow (A) was analyzed for relative mRNA abundance of the osteoclastogenesis gene factor of activated T-cells (Nfatc1), while the flushed femur (B-D) was used to examine genes involved in osteoblast activity and function: type 1 collagen (Colla1), osteocalcin (Ocn), alkaline phosphatase (Alp), osteoprotegerin (Opg), and receptor activator for NF-kappa B ligand (Rankl) in sham-operated (SHAM) and ovariectomized (Ovx) rats treated with placebo or lycopene (15, 30 and 45 mg/kg body weight per day) or alendronate (ALN) (2.0 ug/kg body weight per day) for 12 weeks. Bone marrow (F-H) was analyzed for relative mRNA abundance of oxidative enzyme: glutathione peroxidase (GPx), superoxide dismutase (SOD) and catalase (CAT) in sham-operated (SHAM) and ovariectomized (Ovx) rats treated with placebo or lycopene (15, 30 and 45 mg/kg body weight per day) or alendronate (ALN) (2.0 ug/kg body weight per day) for 12 weeks. Bone marrow (I) and the flushed femur (J-L) were analyzed for relative mRNA abundance of apoptotic genes. Genes of interest including, B-cell lymphoma homologous antagonist/killer (Bak1), caspase-3 (Casp3) and -9 (Casp 9) in sham-operated (SHAM) and ovariectomized (Ovx) rats treated with placebo or lycopene (15, 30 and 45 mg/kg body weight per day) or alendronate (ALN) (2.0 ug/kg body weight per day) for 12 weeks. Bars represent the mean±SD for 10 rats in each group.
A total of 264 Wistar female rats, ˜6 months old, were supplied by the Animal House at King Fahd Medical Research Center (KFMRC), KAU. Rats were housed in individual cages and maintained at 22° C. with a 12-h light/dark cycle. During the study period, rats were given standard rodent chow diet ad libitum (commercial rat cubes containing approximately 18% protein, 3% fat, 77% carbohydrate, and 2% of an inorganic-salt mixture with a vitamin supplement by weight, supplied by Grain Silos and Flour Mills Organization, Jeddah, Saudi Arabia) and water until the onset of intervention. Prior to surgery, rats were anesthetized with ketamine [(10% ketamine hydrochloride (80 mg/kg body weight), Cayman Chemical, Michigan, USA] and xylazine [(2% xylazine hydrochloride, 10 mg/kg body weight), Sigma-Aldrich Co., St. Louis, USA]. A single longitudinal skin incision was made on the dorsal midline at the level of the kidneys and both ovaries were ligated and removed to produce an ovariectomy in all OVX group animals. A SHAM-operated group, acting as a negative control for the effect of ovariectomy on bone parameters, underwent bilateral laparotomy, during which the ovaries were exposed but remained intact. […] The lycopene-supplemented groups were given lycopene (15, 30 and 45 mg/kg body weight per day) dissolved in corn oil by daily intra-gastric administration for the experimental period of 12 weeks. The SHAM, OVX and ALN control groups were given the same volume of corn oil without lycopene treatment. […] A 12-week randomized placebo-controlled study in order to examine the protective effects of lycopene supplementation on bone mass and fragility in OVX rats was concluded. Prior to surgery, body weight and bone mineral density (BMD) were obtained for all animals. Rats were randomized using a computer-generated randomization code into one of six groups: (1) sham-operated (SHAM; n=44); (2) ovariectomized control (OVX; n=44); (3) OVX lycopene-supplemented (15 mg/kg body weight per day) (n=44); (4) OVX lycopene-supplemented (30 mg/kg body weight per day) (n=44); (5) OVX lycopene-supplemented (45 mg/kg body weight per day) (n=44) and (6) OVX alendronate-treated (ALN) [2.0 μg/kg body weight per day subcutaneously (sc)] (n=44). Alendronate is an anti-resorptive agent for the treatment of osteoporosis and was used as a positive therapy control. […]

The mark [1] stands for this setting: flushed femurs, lycopene treatment.

`CC(C)=CCC/C(C)=C/C=C/C(C)=C/C=C/C(C)=C/C=C/C=C(C)/C=C/C=C(C)/C=C/C=C(\C)CCC=C(C)C` [lycopene]: the “Alp, Colla1 and Ocn mRNA” value (OVX rats, lycopene treatment) is “enhancing”. In addition, where the note is “all three doses of lycopene”, the RANKL expression entry is on record as “down-regulated”. Moreover, under “bone marrow, lycopene treatment”, the “Bak1 mRNA abundance compared to OVX control” value is “up-regulated”. Further, the “OVX-induced increase in Nfatc1 mRNA” value (bone marrow, lycopene, 12 weeks, restored to SHAM level) is given as “suppressed”. Under setting [1], the “Casp 9 and Casp 3 gene expression” value was “did not change”; the Colla1 gene expression result is “remained elevated”. The OPG expression result (higher doses of lycopene) is “decreased”. Moreover, the “decrease in concentration ratio of RANKL/OPG” value (lycopene 30 mg/kg body weight per day) is 18.9%. Moreover, the “decrease in concentration ratio of RANKL/OPG” value (lycopene 45 mg/kg body weight per day) was found to be 38.3%. Moreover, the “GPX-1, CAT and SOD relative expression” value (lycopene treatment, to a level higher than SHAM) is reported as “increased”.
